Target: T1, full-length human PKCι (Homo sapiens, UniProt P41743)
T1 construct: Recombinant, full-length human PKCι expressed in Sf21 insect cells is also commercially available; purchased; host or cells: Sf21 insect cells
T1 sequence (P41743 1-596): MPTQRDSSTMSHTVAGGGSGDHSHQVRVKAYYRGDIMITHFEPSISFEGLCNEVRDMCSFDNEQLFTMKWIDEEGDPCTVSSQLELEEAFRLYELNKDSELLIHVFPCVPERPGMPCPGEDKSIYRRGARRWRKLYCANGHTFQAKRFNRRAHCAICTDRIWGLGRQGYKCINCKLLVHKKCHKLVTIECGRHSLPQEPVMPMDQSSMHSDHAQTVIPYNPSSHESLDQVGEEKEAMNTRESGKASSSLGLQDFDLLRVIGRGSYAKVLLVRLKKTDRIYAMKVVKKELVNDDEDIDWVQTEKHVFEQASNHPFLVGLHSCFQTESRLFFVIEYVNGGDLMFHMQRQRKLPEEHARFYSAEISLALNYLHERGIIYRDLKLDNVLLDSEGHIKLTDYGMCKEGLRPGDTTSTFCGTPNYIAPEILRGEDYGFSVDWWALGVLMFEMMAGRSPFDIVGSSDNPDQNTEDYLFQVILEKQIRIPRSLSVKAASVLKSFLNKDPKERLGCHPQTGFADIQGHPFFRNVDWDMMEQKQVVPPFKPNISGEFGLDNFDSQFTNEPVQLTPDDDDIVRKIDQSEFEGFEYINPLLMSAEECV
Experiment: PKCι IC50 IMAP assay, full-length PKCι at 150 μM ATP
Type: biochemical
Details: read-out: IC50 in IMAP assay against full length PKCi at 150 μM ATP
Summary of the method: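 Phosphorylation of a 5FAM-tagged PKCε pseudopeptide-derived substrate (100 nM) by full-length recombinant human PKCι was monitored by IMAP fluorescence polarisation. ATP was held at 150 μM, five times its apparent KM, with 60 min room-temperature incubation.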

Compound	IC50 [µM]
c1cnc(Nc2cc(-c3nc(N[C@@H]4CCNC4)c4ccncc4n3)ccn2)cn1 [Example 243, {2-[2-(Pyrazin-2-ylamino)-pyridin-4-yl]-pyrido[3,4-d]pyrimidin-4-yl}-(R)-pyrrolidin-3-yl-amine]	1 to 10
c1ncc2nc(N3CCOCC3)nc(N3CCNCC3)c2c1C1CC1 [Example 1016, 5-Cyclopropyl-2-morpholin-4-yl-4-piperazin-1-yl-pyrido[3,4-d]pyrimidine]	< 0.1
Fc1ccc(OC(F)(F)F)cc1Nc1cc(-c2nc(N3CCNCC3)c3c(C4CC4)cncc3n2)ccn1 [Example 555, [4-(5-Cyclopropyl-4-piperazin-1-yl-pyrido[3,4-d]pyrimidin-2-yl)-pyridin-2-yl]-(2-fluoro-5-trifluoromethoxy-phenyl)-amine]	0.1 to 1
COc1cncc2nc(-c3ccncc3)nc(N3CCNCC3)c12 [Example 31, 1-[5-methoxy-2-(pyridin-4-yl)-pyrido[3,4-d]-pyrimidin-4-yl]-piperazine]	0.1 to 1
COc1cncc2nc(-c3ccnc(Nc4ccccc4C(F)(F)F)c3)nc(N3CCNCC3)c12 [Example 445, [4-(5-Methoxy-4-piperazin-1-yl-pyrido[3,4-d]pyrimidin-2-yl)-pyridin-2-yl]-(2-trifluoromethyl-phenyl)-amine]	0.1 to 1
CC1CN(c2nc(-c3ccnc(Nc4nc(F)ccc4F)c3)nc3cncc(C4CC4)c23)CC(C)N1 (stereo not drawn) [Example 763, {4-[5-Cyclopropyl-4-(3,5-dimethyl-piperazin-1-yl)-pyrido[3,4-d]pyrimidin-2-yl]-pyridin-2-yl}-(3,6-difluoro-pyridin-2-yl)-amine]	< 0.1
N[C@H](CNc1nc(-c2ccncc2)nc2c(-c3ccc(Cl)cc3)nccc12)Cc1ccccc1 [Example 103, N-[(2S)-2-amino-3-phenylpropyl]-8-(4-chloro-phenyl)-2-(pyridin-4-yl)-pyrido[3,4-d]-pyrimidin-4-amine]	0.1 to 1
COc1cccc(Nc2cc(-c3nc(N4CCC(O)CC4)c4c(OC)cncc4n3)ccn2)n1 [Example 469, 1-{5-Methoxy-2-[2-(6-methoxy-pyridin-2-ylamino)-pyridin-4-yl]-pyrido[3,4-d]pyrimidin-4-yl}-piperidin-4-ol]	1 to 10
CC(=O)Nc1cc(-c2nc(N3CCNC(CC(F)(F)F)C3)c3c(C4CC4)cncc3n2)ccn1 (stereo not drawn) [Example 626, N-(4-{5-Cyclopropyl-4-[3-(2,2,2-trifluoro-ethyl)-piperazin-1-yl]-pyrido[3,4-d]pyrimidin-2-yl}-pyridin-2-yl)-acetamide]	< 0.1
N[C@H](CNc1nc(-c2ccncc2)nc2c(Oc3ccccc3)nccc12)Cc1ccccc1 [Example 129, N-[(2S)-2-amino-3-phenylpropyl]-8-phenoxy-2-(pyridin-4-yl)pyrido[3,4-d]pyrimidin-4-amine]	0.1 to 1
Clc1cncc2nc(-c3ccnc(Nc4ccccc4)c3)nc(N3CCNCC3)c12 [Example 246, [4-(5-Chloro-4-piperazin-1-yl-pyrido[3,4-d]pyrimidin-2-yl)-pyridin-2-yl]-phenyl-amine]	0.1 to 1
FC(F)(CNc1cc(-c2nc(N3CCNCC3)c3c(C4CC4)cncc3n2)ccn1)c1ccccc1 [Example 2166, [4-(5-Cyclopropyl-4-piperazin-1-yl-pyrido[3,4-d]pyrimidin-2-yl)-pyridin-2-yl]-(2,2-difluoro-2-phenyl-ethyl)-amine]	< 0.1
COc1cncc2nc(-c3ccncc3)nc(N3CCN[C@@H](C(F)c4ccccc4)C3)c12 (stereo partly drawn) [Example 76, (3R)-3-[fluoro(phenyl)-methyl]-1-[5-methoxy-2-(pyridin-4-yl)-pyrido[3,4-d]-pyrimidin-4-yl]-piperazine]	< 0.1
c1cc(-c2nc(N3CCNCC3)c3c(C4CC4)cncc3n2)cc(NC2CCCC2)n1 [Example 281, Cyclopentyl-[4-(5-cyclopropyl-4-piperazin-1-yl-pyrido[3,4-d]pyrimidin-2-yl)-pyridin-2-yl]-amine]	< 0.1
Fc1ccc(Nc2cc(-c3nc(N4CCNCC4)c4c(C5CC5)cncc4n3)ccn2)cc1F [Example 599, [4-(5-Cyclopropyl-4-piperazin-1-yl-pyrido[3,4-d]pyrimidin-2-yl)-pyridin-2-yl]-(3,4-difluoro-phenyl)-amine]	< 0.1
N[C@H](CNc1nc(-c2ccncc2)nc2c(-c3cccc(-c4cccc(Cl)c4)c3)nccc12)Cc1ccccc1 [Example 106, N-[(2S)-2-amino-3-phenylpropyl]-8-[3-(3-chloro-phenyl)-phenyl]-2-(pyridin-4-yl)pyrido[3,4-d]pyrimidin-4-amine]	1 to 10
Fc1cccc(Nc2cc(-c3nc(N4CCN[C@@H](C5CC5)C4)c4c(C5CC5)cncc4n3)ccn2)n1 [Example 277, {4-[5-Cyclopropyl-4-((S)-3-cyclopropyl-piperazin-1-yl)-pyrido[3,4-d]pyrimidin-2-yl]-pyridin-2-yl}-(6-fluoro-pyridin-2-yl)-amine]	< 0.1
O[C@H]1c2ccccc2C[C@@H]1Nc1cc(-c2nc(N3CCNCC3)c3c(C4CC4)cncc3n2)ccn1 (relative stereo) [Example 2158, trans-2-[4-(5-Cyclopropyl-4-piperazin-1-yl-pyrido[3,4-d]pyrimidin-2-yl)-pyridin-2-ylamino]-indan-1-ol]	< 0.1
COc1cncc2nc(-c3ccnc(Nc4ccc(C#N)cn4)c3)nc(N[C@@H]3CCNC3)c12 [Example 344, 6-{4-[5-Methoxy-4-((R)-pyrrolidin-3-ylamino)-pyrido[3,4-d]pyrimidin-2-yl]-pyridin-2-ylamino}-nicotinonitrile]	< 0.1
Fc1cc(F)c(Nc2cc(-c3nc(N[C@@H]4CCNC4)c4c(C5CC5)cncc4n3)ccn2)nc1F [Example 2056, {5-Cyclopropyl-2-[2-(3,5,6-tritluoro-pyridin-2-ylamino)-pyridin-4-yl]-pyrido[3,4-d]pyrimidin-4-yl}-(R)-pyrrolidin-3-yl-amine]	< 0.1

Next, values leading:

IC50 [µM]	Compound
0.1 to 1	N#Cc1ccnc(Nc2cc(-c3nc(N4CCNCC4)c4ccncc4n3)ccn2)c1 [Example 342, 2-[4-(4-piperazin-1-yl-pyrido[3,4-d]pyrimidin-2-yl)-pyridin-2-ylamino]-isonicotinonitrile]
< 0.1	COc1cncc2nc(-c3ccnc(Nc4nc(C(F)(F)F)co4)c3)nc(N3CCNCC3)c12 [Example 202, [4-(5-Methoxy-4-piperazin-1-yl-pyrido[3,4-d]pyrimidin-2-yl)-pyridin-2-yl]-(4-trifluoromethyl-oxazol-2-yl)-amine]
< 0.1	CC(=O)Nc1cc(-c2nc(N3CCNCC3)c3c(C4CC4)cncc3n2)ccn1 [Example 581, N-[4-(5-Cyclopropyl-4-piperazin-1-yl-pyrido[3,4-d]pyrimidin-2-yl)-pyridin-2-yl]-acetamide]
< 0.1	COc1cccc(Nc2cc(-c3nc(N4CCNCC4)c4c(C5CC5)cncc4n3)ccn2)c1 [Example 571, [4-(5-Cyclopropyl-4-piperazin-1-yl-pyrido[3,4-d]pyrimidin-2-yl)-pyridin-2-yl]-(3-methoxy-phenyl)-amine]
< 0.1	CC(C)(C)c1cc2c(-c3nc(N4CCNCC4)c4c(C5CC5)cnc(F)c4n3)ccnc2[nH]1 [Example 2119, 2-(2-tert-Butyl-1H-pyrrolo[2,3-b]pyridin-4-yl)-5-cyclopropyl-8-fluoro-4-piperazin-1-yl-pyrido[3,4-d]pyrimidine]
< 0.1	N#Cc1ccc(CC(=O)Nc2cc(-c3nc(N[C@@H]4CCNC4)c4ccncc4n3)ccn2)cc1 [Example 349, 2-(4-Cyano-phenyl)-N-{4-[4-((R)-pyrrolidin-3-ylamino)-pyrido[3,4-d]pyrimidin-2-yl]-pyridin-2-yl}-acetamide]
< 0.1	C[C@@H]1CN(c2nc(-c3ccnc(NC4CCN(CC(F)(F)F)CC4)c3)nc3cncc(C4CC4)c23)C[C@H](C)N1 [Example 2073, {4-[5-Cyclopropyl-4-((cis)-3,5-dimethyl-piperazin-1-yl)-pyrido[3,4-d]pyrimidin-2-yl]-pyridin-2-yl}-[1-(2,2,2-trifluoro-ethyl)-piperidin-4-yl]-amine]
0.1 to 1	COc1cncc2nc(-c3ccnc(NC(=O)[C@@H](C)c4ccccc4)c3)nc(N[C@@H]3CCNC3)c12 [Example 407, (S)-N-{4-[5-Methoxy-4-((R)-pyrrolidin-3-ylamino)-pyrido[3,4-d]pyrimidin-2-yl]-pyridin-2-yl}-2-phenyl-propionamide]
< 0.1	COc1cncc2nc(-c3ccnc(NC(=O)Cc4ccc(C#N)cc4)c3)nc(N3CCNCC3)c12 [Example 355, 2-(4-Cyano-phenyl)-N-[4-(5-methoxy-4-piperazin-1-yl-pyrido[3,4-d]pyrimidin-2-yl)-pyridin-2-yl]-acetamide]
< 0.1	Fc1cccc(F)c1-c1cc2c(-c3nc(N4CCNCC4)c4c(C5CCC5)cncc4n3)ccnc2[nH]1 [Example 2144, 5-Cyclobutyl-2-[2-(2,6-difluoro-phenyl)-1H-pyrrolo[2,3-b]pyridin-4-yl]-4-piperazin-1-yl-pyrido[3,4-d]pyrimidine]

Reference: US9914730B2, “Azaquinazoline inhibitors of Atypical protein Kinase C” (Ignyta, Inc., priority 2012, dated 2018)
